Assay results reported in patent US20040076968A1, “Method for detecting pre-disposition to hepatotoxicity” (priority 2000, published 2004).

Tested on: UGT1A gene 3′UTR (exon 5)
Assay: Association of the UGT1A 3′UTR polymorphism with liver function abnormality in tolcapone-treated patients (case-control genotyping)
Type: in vivo, human
Conditions: UGT1A-3′_908
Procedure: Disease severity had already been controlled for by the original study inclusion criteria.
In the KTC format, the generation of double-stranded amplification product is monitored using a DNA intercalating dye and a thermal cycler which has a fluorescence-detecting CCD camera attached (PE-Bipsystems GeneAmp 5700 Sequence Detection System). Fluorescence in each well of the PCR amplification plate is measured at each cycle of annealing and denaturation. The cycle at which the relative fluorescence reached a threshold of 0.5 using the SDS sofiware from PE-Biosystems was defined as the Ct.
The amplification reactions were designed to be allele-specific, so that the amplification reaction was positive if the polymorphism was present and the amplification reaction was negative if the polymorphism was absent. For each bi-allelic polymorphism, one well of the amplification plate was set up to be specific for allele 1 and a second well was set up to be specific for allele 2. For each polymorphism to be detected, three primers were designed—two allele-specific primers and one common primer (Table 3). Reactions for allele 1 contained allele 1-specific primer and the common primer and reactions for allele 2 contained allele 2-specific primer and the common primer.
The Ct of each amplification reaction was determined and the difference between the Ct for allele 1 and allele 2 (delta Ct) was, used as the assay result. Samples with delta Cts between −3.0 and 3.0 were considered heterozygous (A1/A2). Samples with delta Cts below −3.0 were considered homozygous for A1 (A1/A1); samples with delta Cts above 3.0 were considered homozygous for A2 (A2/A2).
The patient samples were divided into two groups.
For each genotype, the following analyses were performed:
a) Analysis of the entire genotype: patients were classified according to the following three categories: homozygous 1/1 (two copies of allele 1 and no copies of allele 2), heterozygous 1/2 (one copy of allele 1 and one copy of allele 2) or homozygous 2/2 (no copies of allele 1 and two copies of allele 2). Analysis was conducted to assess whether there were differences in the proportion of case patients in each of these groups, compared with the proportion of control patients. The Cochran-Maentel-Hanszel (CMH) test was applied to the data presented in a 2-by-3 table (the two columns indicating presence or absence of liver function abnormality and the three rows indicating the three categories of the genotype).
b) Analysis of alleles: the presence of allele 1 or 2 in case patients was compared to the presence of the respective allele in the control patients.
c) Analysis of allele counts: this analysis was conducted to compare the distribution of the alleles in patients with liver function abnormality to that of patients without abnormality. The total number of copies of allele 1 among patients with liver function abnormality was compared with the total number of copies of allele 2 among these case patients. The CMH test was applied to the data using a 2-by-2 table (the two columns indicating presence or absence of liver function abnormality and the two rows indicating the two allele counts).
All markers showing significant association to elevated liver transaminases corresponded to SNPs in the UGT1 genes.

n (%) of patients (Allele C Absent, Liver Function Abnormality Absent): 14 (5.1%)
n (%) of patients (Allele C Absent, Liver Function Abnormality Present): 4 (3.0%)
n (%) of patients (Allele C Present, Liver Function Abnormality Absent): 260 (94.9%)
n (%) of patients (Allele C Present, Liver Function Abnormality Present): 131 (97.0%)
n (%) of patients (Allele G Absent, Liver Function Abnormality Absent): 163 (59.5%)
n (%) of patients (Allele G Absent, Liver Function Abnormality Present): 101 (74.8%)
n (%) of patients (Allele G Present, Liver Function Abnormality Absent): 111 (40.5%)
n (%) of patients (Allele G Present, Liver Function Abnormality Present): 34 (25.2%)
n (%) of allele copies (Count Allele C, Liver Function Abnormality Absent): 423 (77.2%)
n (%) of allele copies (Count Allele C, Liver Function Abnormality Present): 232 (85.9%)
n (%) of allele copies (Count Allele G, Liver Function Abnormality Absent): 125 (22.8%)
n (%) of allele copies (Count Allele G, Liver Function Abnormality Present): 38 (14.1%)
n (%) of patients (Genotype Heterozygous G/C, Liver Function Abnormality Absent): 97 (35.4%)
n (%) of patients (Genotype Heterozygous G/C, Liver Function Abnormality Present): 30 (22.2%)
n (%) of patients (Genotype Homozygous C/C, Liver Function Abnormality Absent): 163 (59.5%)
n (%) of patients (Genotype Homozygous C/C, Liver Function Abnormality Present): 101 (74.8%)
n (%) of patients (Genotype Homozygous G/G, Liver Function Abnormality Absent): 14 (5.1%)
n (%) of patients (Genotype Homozygous G/G, Liver Function Abnormality Present): 4 (3.0%)
Compound: Cc1ccc(C(=O)c2cc(O)c(O)c([N+](=O)[O-])c2)cc1 [tolcapone]
